Assay results from PubChem BioAssay (NCI).
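Assay format: 96-well plates, 48-hour exposure. At the GI50, growth is halved. TGI: total growth inhibition.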

What was measured:
Test in all cases: NCI anticancer screen, dose series, 48 h
786-0 renal = system: 786-0 renal
NCI-H522 lung = system: NCI-H522 lung
LOX IMVI melanoma = system: LOX IMVI melanoma
ACHN renal = system: ACHN renal
CCRF-CEM leukemia = system: CCRF-CEM leukemia
UACC-62 melanoma = system: UACC-62 melanoma
HCC-2998 colon = system: HCC-2998 colon
NCI-H460 lung = system: NCI-H460 lung

| Structure (SMILES) | GI50 (786-0 renal) | TGI (786-0 renal) | GI50 (NCI-H522 lung) | TGI (NCI-H522 lung) | GI50 (LOX IMVI melanoma) | TGI (LOX IMVI melanoma) | GI50 (ACHN renal) | TGI (ACHN renal) | GI50 (CCRF-CEM leukemia) | TGI (CCRF-CEM leukemia) | GI50 (UACC-62 melanoma) | TGI (UACC-62 melanoma) | GI50 (HCC-2998 colon) | TGI (HCC-2998 colon) | GI50 (NCI-H460 lung) | TGI (NCI-H460 lung) |
| --- | --- | --- | --- | --- | --- | --- | --- | --- | --- | --- | --- | --- | --- | --- | --- | --- |
| COc1ccc(/C=C/C(=O)c2ccc(OC)c(OC)c2)cc1O | 14.2 µM | 65.8 µM | 3.42 µM | 12.4 µM | 5.69 µM | 18.6 µM | 6.15 µM | > 100 µM | 3.51 µM | 23.9 µM | 11.2 µM | 24.3 µM | 9.1 µM | 22.1 µM | 3.44 µM | 11.8 µM |
| CCN(CC)C1CCC(Nc2c(C(C)=O)cnc3ccc(-c4ccc(O)c(Cl)c4)cc23)CC1 (configuration not stated) | 1.64 µM | 44.8 µM | 0.331 µM | 1.71 µM | 0.336 µM | 1.58 µM | 0.485 µM | > 37.8 µM | 0.385 µM | 6.26 µM | 3.47 µM | 25.4 µM | 1.63 µM | 12.9 µM | 0.311 µM | 1.87 µM |
| CC(=O)Nc1ccc(COC(O)CN2CCCCC2)cc1[N+](=O)[O-] (configuration not stated) | – | > 100 µM | – | > 100 µM | – | – | – | > 100 µM | – | > 100 µM | – | > 100 µM | – | > 100 µM | – | > 100 µM |
| O=S(=O)(/N=c1/scc(-c2ccccc2)n1-c1ccccc1)c1ccc(N2N=C3c4ccccc4CC3C2c2cccs2)cc1 (configuration not stated) | 64.2 µM | > 100 µM | 61.9 µM | > 100 µM | 32.4 µM | > 100 µM | 42.5 µM | > 100 µM | 50.3 µM | > 100 µM | 60.3 µM | > 100 µM | 32.8 µM | 81.3 µM | 95.1 µM | > 100 µM |
| O=C1c2cccc(NCCN=Cc3ccccc3O)c2C(=O)c2c(NCCN=Cc3ccccc3O)cccc21 | 0.865 µM | 3.76 µM | 0.278 µM | 1.38 µM | 0.534 µM | 2.44 µM | 1.32 µM | 8.82 µM | 1.02 µM | 4.24 µM | 1.59 µM | 4.86 µM | 0.535 µM | 1.72 µM | 0.399 µM | 1.52 µM |
| CCCCCCCCn1ccc2cc(NC(=O)Cn3cc(CN4CCCCC4)nn3)ccc21 | 1.8 µM | 3.44 µM | 1.8 µM | 4 µM | 1.63 µM | 3.17 µM | 1.72 µM | 3.19 µM | 2.01 µM | 7.74 µM | 1.81 µM | 3.51 µM | 1.66 µM | 3.28 µM | 1.89 µM | 3.67 µM |
| COc1cc([N+](=O)[O-])c(OC)cc1-c1nc2sc(Cl)cn2c1/C=N/NC1=NCCN1 | 0.487 µM | 1.13 µM | 2.93 µM | > 29.7 µM | 1.74 µM | 3.25 µM | 1.32 µM | 2.6 µM | – | – | – | – | 0.597 µM | 1.22 µM | 0.322 µM | > 100 µM |
| COc1cc(/C=C2\C[C@H]3[C@@H]4CC=C5C[C@@H](O)CC[C@]5(C)[C@H]4CC[C@]3(C)[C@H]2O)ccc1OCCCn1ccnc1 | 1.23 µM | 3.09 µM | 22.3 µM | > 50 µM | 0.988 µM | 2.01 µM | 1.28 µM | 3.34 µM | – | – | 1.59 µM | 6.65 µM | 8.22 µM | 16.1 µM | 1.52 µM | 5.11 µM |
| Cc1ccc(Cl)c(Nc2ccccc2C(=O)O)c1Cl | 23 µM | 64.3 µM | 28.3 µM | 87.2 µM | 18.7 µM | 44.9 µM | 32.7 µM | > 100 µM | 25.5 µM | 90.1 µM | 16.3 µM | 32.7 µM | 26.6 µM | 66.4 µM | 25.9 µM | 69.4 µM |
| O=c1ssc(Cl)c1Cl | – | > 7.05 µM | – | > 6.78 µM | – | > 10 µM | – | > 10 µM | – | 5.25 µM | – | > 10 µM | – | > 10 µM | – | > 10 µM |
| CCOc1cccc(-c2nc(N)nc(Nc3ccccc3SSc3ccccc3Nc3nc(N)nc(-c4cccc(OCC)c4)n3)n2)c1 | 5.03 µM | 69.7 µM | 7.77 µM | 48.9 µM | 1.51 µM | 3.22 µM | 2.14 µM | 5.8 µM | 2.2 µM | > 100 µM | 2.28 µM | 5.29 µM | > 100 µM | > 100 µM | 3.03 µM | > 100 µM |
| CC(C)(C)c1c2c(c(C(C)(C)C)c3c1OCN(Cc1ccccc1)C3)OCN(Cc1ccccc1)C2 | – | 27.7 µM | – | 23.2 µM | – | 31.5 µM | – | 51.1 µM | – | > 100 µM | – | 38.7 µM | – | 22.3 µM | – | 28.7 µM |
| Cn1c(NCC(O)CN2CCCC2)cc(=O)n(C)c1=O (configuration not stated) | > 100 µM | > 100 µM | > 100 µM | > 100 µM | > 100 µM | > 100 µM | > 100 µM | > 100 µM | > 100 µM | > 100 µM | > 100 µM | > 100 µM | > 100 µM | > 100 µM | > 100 µM | > 100 µM |
| O=C1c2ccccc2-c2c1c1ccccc1c(=O)n2CCCNCCCCNCCCN1C(=O)c2ccccc2C2C(=O)c3ccccc3C21 (configuration not stated) | 0.0786 µM | 0.782 µM | 9.38 µM | 50 µM | 0.0278 µM | 0.253 µM | 0.0573 µM | 0.762 µM | 0.0291 µM | 0.766 µM | 0.666 µM | 3.25 µM | 0.194 µM | 0.908 µM | 0.0426 µM | 2.39 µM |
| O=C(O)c1ccc(C(=O)O)c(C(=O)Nc2ccc3c(c2)C(=O)c2ccccc2-3)c1 | – | > 100 µM | – | > 100 µM | – | > 100 µM | – | > 100 µM | – | > 100 µM | – | > 100 µM | – | > 100 µM | – | > 100 µM |
| CC(=O)c1cc(C(=O)c2ccc3c(c2)Sc2ccccc2N3)c2cc(C)ccn12 | 0.0965 µM | > 100 µM | 0.0412 µM | > 100 µM | 0.0906 µM | > 100 µM | 0.0816 µM | > 100 µM | 0.257 µM | > 100 µM | – | – | 0.247 µM | 20.6 µM | 0.0465 µM | > 100 µM |
| CC1(C)[C@@H](OC(=O)CCC(=O)O)CC[C@]2(C)[C@H]3C(=O)C=C4[C@@H]5C[C@@](C)(C(=O)O)CC[C@]5(C)CC[C@@]4(C)[C@]3(C)CC[C@@H]12 | 58.8 µM | 104 µM | 51.1 µM | 80.7 µM | – | – | 63 µM | 114 µM | 52.4 µM | 78.3 µM | 48.1 µM | 60.6 µM | 56.1 µM | 80.5 µM | 52.6 µM | 76 µM |
| COc1cc(-c2c(C#N)c(N)nc(N3CCOCC3)c2C#N)cc(OC)c1OC | > 100 µM | > 100 µM | > 100 µM | > 100 µM | 79.7 µM | > 100 µM | > 100 µM | > 100 µM | > 100 µM | > 100 µM | 36.9 µM | > 100 µM | – | – | > 100 µM | > 100 µM |
| COc1ccc(-n2ccnc2-c2cc(OC)c(OC)c(OC)c2)cc1 | 5.65 µM | > 100 µM | 2.92 µM | 8.12 µM | 7.99 µM | > 100 µM | – | – | 2.99 µM | > 100 µM | 2.61 µM | 27.3 µM | 0.957 µM | 24.6 µM | 2.37 µM | > 100 µM |
| CCN1Cc2nc3sc(C)c(C)c3c(=O)n2C=C1C | 16.1 µM | 66.4 µM | – | – | 4.64 µM | 17.1 µM | 11.5 µM | > 100 µM | 2.52 µM | 8.21 µM | 5.83 µM | 24.7 µM | 5.19 µM | 37.8 µM | 40.6 µM | > 100 µM |
| O=C1c2cc([N+](=O)[O-])ccc2-c2ccc3c4ccc5c6c(ccc(c7ccc1c2c73)c64)C(=O)c1cc([N+](=O)[O-])ccc1-5 | – | > 100 µM | – | > 100 µM | – | > 100 µM | – | > 100 µM | – | > 100 µM | – | > 100 µM | – | – | – | – |
| NCC1OC(OC2C(CO)OC(OC3C(O)C(N)CC(N)C3OC3OC(CO)C(O)CC3N)C2O)C(N)C(O)C1OC1OC(CO)C(O)C(O)C1O (configuration not stated) | > 50 µg/mL | > 50 µg/mL | – | – | > 50 µg/mL | > 50 µg/mL | > 50 µg/mL | > 50 µg/mL | > 50 µg/mL | > 50 µg/mL | > 50 µg/mL | > 50 µg/mL | – | – | > 50 µg/mL | > 50 µg/mL |
| COc1cc([C@@H]2C[C@H]2c2cc(SC)n[nH]2)cc(OC)c1OC | 18 µM | 44.6 µM | 13.8 µM | 37.3 µM | 93.9 µM | > 100 µM | 30.3 µM | > 100 µM | 19.4 µM | > 100 µM | 14 µM | 43.6 µM | – | – | 17.7 µM | 41.7 µM |
| CCCCCCCCCCCCOC1C(CNC(=O)C2OC3OC(C)(C)OC3C2NC(=O)Nc2ccc(CC(=O)NC(Cc3ccccc3)C(=O)O)cc2)OC2OC(C)(C)OC21 (configuration not stated) | > 25 µM | > 25 µM | > 25 µM | > 25 µM | > 25 µM | > 25 µM | > 25 µM | > 25 µM | – | – | > 25 µM | > 25 µM | > 25 µM | > 25 µM | > 25 µM | > 25 µM |
